Results taken from publication PMC4461206 (Acta Crystallographica Section D: Biological Crystallography, 2015).
Where a chain is given by its changes, count along the chain named.

Experiments:
[1] = molecular target: T1, AcdDPN7 (3-sulfinopropionyl-coenzyme A desulfinase) (Advenella mimigardefordensis, UniProt K4L7X3); assay: DTNB sulfite-release assay, […] nm; assay type: biochemical; conditions: 50 mM Tris-HCl pH 7.4, 30 C, 0.2 mM DTNB, 0.1 mM 3SP-CoA, with or without O2
T1 construct: gene acd; His6-tagged, pET-23a::acdDPN7, E. coli BL21(DE3) pLysS; homotetramer 150-200 kDa, one FAD per subunit; residues 2-392 superimposed in the structure

[2] = molecular target: T1, AcdDPN7 (3-sulfinopropionyl-coenzyme A desulfinase); assay: X-ray crystal structure, […] A; assay type: binding; conditions: co-crystallized and soaked with succinyl-CoA, which was hydrolysed; only CoA seen in the active site (monomers A, B, D, E, F), occupancy 0.43-0.59; pH 6.5
[3] = molecular target: T1, AcdDPN7 (3-sulfinopropionyl-coenzyme A desulfinase); assay: X-ray crystal structure, […] A; assay type: binding; conditions: noncovalent, one per subunit, site shared by two monomers; pH 6.5
[4] = molecular target: the molecule itself; assay: crystal structure; apo enzyme at 1.89 Å (two monomers in the asymmetric unit) and complex with CoA at 2.30 Å (six monomers, three dimers); 0.1 M Bis-tris pH 6.5, PEG 3350; 100 K
[5] = molecular target: the molecule itself; assay: SEC; wild-type Acd_(DPN7) and Acd_(DPN7_R84K) run side by side; conditions not told for this run

CC(C)(COP(=O)(O)OP(=O)(O)OC[C@H]1O[C@@H](n2cnc3c(N)ncnc32)[C@H](O)[C@@H]1OP(=O)(O)O)[C@@H](O)C(=O)NCCC(=O)NCCSC(=O)CCS(=O)O [3SP-CoA]
DTNB sulfite-release assay, 412 nm [1]: AcdDPN7 showed no significant difference in reaction velocity in the presence or absence of O2

CC(C)(COP(=O)(O)OP(=O)(O)OC[C@H]1O[C@@H](n2cnc3c(N)ncnc32)[C@H](O)[C@@H]1OP(=O)(O)O)[C@@H](O)C(=O)NCCC(=O)NCCS [CoA]
X-ray crystal structure, 2.30 A [2]: In the active sites of AcdDPN7 monomers A, B, D, E and F only the CoA group

Cc1cc2nc3c(=O)[nH]c(=O)nc-3n(C[C@H](O)[C@H](O)[C@H](O)COP(=O)(O)OP(=O)(O)OC[C@H]3O[C@@H](n4cnc5c(N)ncnc54)[C@H](O)[C@@H]3O)c2cc1C [FAD]
X-ray crystal structure, 1.89 A [3]: AcdDPN7 is a tetramer and each monomer has one FAD noncovalently bound to the polypeptide

B1: 3-Sulfinopropionyl-coenzyme A (3SP-CoA) desulfinase from Advenella mimigardefordensis DPN7T (enzyme)
chain: MYELTPEQRTLQTQARELAQSVFASTAVQTDLTEQYPWDNVAQLRDAGFMGMMLPTSVGGRGLSTLDTVIVIEEMAKACATMGRITVDSNLGAIGAITKYGSEEQIKLAADLVLAGDKPAICISEPNAGSAASEMTTRADKNGDHYILNGEKYWITGGGVSKLHLIFARVFDDGVEQGIGAFITVLDDHGPEGLKVGRRLYAMGVRGIPETHLEFHDLKIHKSMMITFPDGLKRGFAALMSAYNAQRVGAGAVALGIAQCAFEEGVAYLKRREQFGRPLAEFQGLQWMVADMSVQLEAARLMLRSAAVSGETFPDINKAAQAKIFAAETANKVTNDALQFFGSSGYGRHNPMERHVRDARMFTIAGGTAQILRTQVASKILDMKLPQTRDGYLKAAQNSKR
stoichiometry N [4]: 4

B2: Acd_(DPN7_R84K) (enzyme)
chain: B1 chain with R84K
stoichiometry N [5]: 4
